The values that follow come from BindingDB's records for doi:10.7270/Q2VT1QHF (Vanderbilt Screening Center For Gpcrs, Ion Channels and …, 2010).

Molecules are shown by their SMILES.

This experiment addresses Metabotropic glutamate receptor 4 (Homo sapiens, UniProt Q14833). In words: PubChem AID 2197.

Chain of Metabotropic glutamate receptor 4 (Q14833 whole entry): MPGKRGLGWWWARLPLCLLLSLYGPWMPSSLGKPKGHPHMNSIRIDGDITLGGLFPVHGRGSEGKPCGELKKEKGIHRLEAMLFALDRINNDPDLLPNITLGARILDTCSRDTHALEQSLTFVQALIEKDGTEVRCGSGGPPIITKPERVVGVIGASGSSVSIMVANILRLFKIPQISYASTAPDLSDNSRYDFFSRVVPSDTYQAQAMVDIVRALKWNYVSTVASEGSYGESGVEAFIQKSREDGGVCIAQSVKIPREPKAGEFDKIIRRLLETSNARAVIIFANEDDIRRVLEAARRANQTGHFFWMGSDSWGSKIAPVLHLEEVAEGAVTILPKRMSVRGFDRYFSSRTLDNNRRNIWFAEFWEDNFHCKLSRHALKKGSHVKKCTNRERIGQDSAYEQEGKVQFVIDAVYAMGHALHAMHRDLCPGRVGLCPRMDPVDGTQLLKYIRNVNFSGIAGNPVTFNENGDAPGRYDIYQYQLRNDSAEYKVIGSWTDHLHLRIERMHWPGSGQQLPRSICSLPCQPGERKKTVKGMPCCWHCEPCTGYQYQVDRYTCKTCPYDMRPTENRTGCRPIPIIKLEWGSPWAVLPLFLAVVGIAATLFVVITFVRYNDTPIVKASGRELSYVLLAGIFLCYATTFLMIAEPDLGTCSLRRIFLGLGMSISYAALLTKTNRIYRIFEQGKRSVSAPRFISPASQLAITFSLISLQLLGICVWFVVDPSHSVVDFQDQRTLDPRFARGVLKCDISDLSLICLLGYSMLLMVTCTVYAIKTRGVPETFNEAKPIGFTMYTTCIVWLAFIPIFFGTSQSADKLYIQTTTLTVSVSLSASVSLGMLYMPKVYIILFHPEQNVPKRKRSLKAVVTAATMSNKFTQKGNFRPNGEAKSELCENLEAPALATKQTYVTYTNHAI

The EC50 is the concentration at which the effect is half-maximal. Read a high EC50 as a need for much substance. On to `O=C(Nc1ccc(-n2c(O)ccc2O)c(Cl)c1)c1ccccn1` [N-[3-chloro-4-(2,5-dioxopyrrolidin-1-yl)phenyl]pyridine-2-carboxamide], for which the response was half-maximal at 5.96 µM (EC50).

`O=C(Nc1ccc(-n2c(O)c3c(c2O)[C@H]2CC[C@@H]3O2)c(Cl)c1)c1ccccn1` [VU0405235-1] yielded an EC50 of 1.44 µM.
